Like-named read-outs stand apart in the source and are kept apart here.
What was measured:
[1] = cited from earlier work
[2] = cited from earlier work; remark: listed apart in the source
[3] = behaviour of ketorolac tromethamine solutions outside pH 6.0-8.5; assay type: physicochemical
Description: In the present invention, a stable and injectable pharmaceutical composition which contains an acetic acid class of NSAID is described. The pH value of the injectable pharmaceutical composition is maintained at 6.0-8.5, preferably 6.9-7.9. When the pH values of the ketorolac tromethamine solutions are lower than 6, the NSAID precipitates from the solutions.
(4). Measure the pH of the solution in (3). If the pH is below 6.0, add an appropriate amount of the alkaline agent as described in (A) of the above “pH-adjusting agent” to the solution. If the pH is above 8.5, add an appropriate amount of the acidic agent as described in (B) of the above “pH-adjusting agent” to the solution. Cloudiness is observed when the pH of the solution is below 6. The solution will become clear after the pH adjustment to between 6.0-8.5.

[4] = cited from earlier work; remark: listed apart in the source
[5] = white to off-white crystalline substance; cited from earlier work
plasma protein = conditions: once in the circulation; cited from earlier work
[6] = cited from earlier work; remark: listed apart in the source

| SMILES | water solubility [1] | time at which serum concentration reaches a peak ([2]; route not given) | behaviour of solution ([3]; pH higher than 8.5) | behaviour of solution ([3]; pH lower than 6) | pKa [4] | behaviour under prolonged exposure to light [5] | terminal elimination half-life ([2]; geriatric patients) | terminal elimination half-life ([2]; young adults) | plasma protein bound (plasma protein) | onset of the anti-inflammatory, analgesic, and antipyretic effects ([6]; after the intramuscular administration) | time to maximum effect ([6]; after the intravenous or intramuscular administrations) | duration of therapeutic effects ([6]; in vivo) |
| --- | --- | --- | --- | --- | --- | --- | --- | --- | --- | --- | --- | --- |
| O=C(c1ccccc1)c1ccc2n1CCC2C(=O)O (racemic) [ketorolac, (±)-5-benzoyl-2,3-dihydro-1H-pyrrolizine-1-carboxylic acid] | low | about 2.9±1.8 minutes | – | – | – | – | – | – | – | – | – | – |
| NC(CO)(CO)CO.O=C(c1ccccc1)c1ccc2n1CCC2C(=O)O (stereo not shown) [ketorolac tromethamine] | enhanced | – | color of the solutions changes | precipitates | 3.5 | discolors | 4.7 to 8.6 h | 3.8 to 6.3 h | 99% | 30 to 60 min | 1 to 2 h | 4 to 6 h |
